For one data set, the system named is MDA-MB-231 cells. Put plainly: Cell viability, MTS Assay in MDA-MB-231 Cells. As to conditions: human, 72 hours. Format: cell-based. On the procedure: Test compounds and reference compound staurosporine (Selleckchem) were all dissolved with DMSO at 10 mM stock. […] Activity was calculated relative to DMSO control. […] Cell viability was 3% of the DMSO control value for Staurosporine (10 uM).

The next data set has as its system 3T3-L1 adipocytes. Put plainly: Free Fatty Acid Levels in 3T3-L1 Adipocytes (Example 4, 25 μM). The format is cell-based, mouse. As to conditions: peptides 25 μM, 20-22 hours then 3 hours with isoproterenol 1 nM, 3T3-L1 adipocytes. The procedure:
Following 12-15 days' differentiation, test peptides were added to a final concentration of 25 μM and incubated for 20-22 hours in Adipocyte Maintenance Medium. After 20-22 hours, isoproterenol (1 nM) was added to all wells except untreated controls and test peptides were replenished. Cells were incubated for a further 3 hours in Assay Buffer (Zen-Bio). Free fatty acid concentrations in the media were determined using a Free Fatty Acid Assay Kit (Zen-Bio) according to the manufacturer's instructions using a plate reader (540 nm). Absorbance values were corrected for untreated background and expressed relative to isoproterenol treated cells. Treatment with isoproterenol (1 nM) alone was used as the free fatty acid level stimulatory control. The relative standard deviation of the isoproterenol control was <10%. […] Free fatty acid levels for insulin (100 nM) treatment were <5% of the isoproterenol control value.

In a further data set the test system is MCF-7 cells. The note with it: human, 72 hours, 10 μM. The procedure:
Peptides and reference compound staurosporine (Selleckchem) were dissolved with DMSO at 10 mM stock. CellTiter 96® AQueous One Solution Reagent (MTS assay reagent) was purchased from Promega (Madison, Wis.). MCF-7 human breast cancer cell line was purchased from American Type Culture Collection (Manassas, Va.). MCF-7 cells were grown in EMEM Medium supplemented with 10% FBS and 0.01 mg/ml human recombinant insulin. 100 μg/ml penicillin and 100 μg/ml streptomycin were added to the culture medium. Cells were incubated with test peptides at 10 μM at 37° C. in a humidified atmosphere of 5% CO2 and 95% air for 72 hours. 5 μl of CellTiter 96® AQueous One Solution Reagent (MTS assay reagent) was added to each well and incubated at 37° C., 5% CO2 for 5 hours. Absorbance at 492 nm was recorded by Envision 2104 Multilabel Reader. Treatment with DMSO alone was used as the cell viability activity control.

The test system of data set [1] is Caspase 3/7 in MDA-MB-231 cells. The data set is described as follows: Caspase 3/7 Activity in MDA-MB-231 Cells (Caspase-Glo 3/7). As to conditions: peptides 10 μM, 18 hours, relative to DMSO control. The format is cell-based, human. On the procedure: The effect of the peptides on cell death/survival can be assessed using a caspase-3 assay. Peptides were dissolved with DMSO at 10 mM stock. […] Staurosporine (Selleckchem) was dissolved with DMSO at 1 mM stock. Caspase-Glo 3/7 Assay Reagent was purchased from Promega (Madison, Wis.). MDA-MB-231 human breast cancer cell line was purchased from American Type Culture Collection (Manassas, Va.). MDA-MB-231 cells were grown in DMEM Medium supplemented with 10% FBS. 100 μg/ml penicillin and 100 μg/ml streptomycin were added to the culture medium. Cultures were maintained at 37° C. in a humidified atmosphere of 5% CO2 and 95% air. MDA-MB-231 cells were incubated with test peptides in duplicate at 10 μM at 37° C. in a humidified atmosphere of 5% CO2 and 95% air for 18 hours. 25 μl of Caspase-Glo 3/7 Assay Reagent was added to each well and incubated at 37° C., 5% CO2 for 1 hour. Luminescence for each sample well on the plate was measured by Envision 2104 Multilabel Reader (PerkinElmer, Santa Clara, Calif.). Activity was calculated relative to DMSO control.

The structures appear in SMILES notation. Residues, ends and D or L forms follow the SMILES beside them.

As for `CC[C@H](C)[C@H](NC(=O)[C@H](C)NC(=O)[C@H](CCCNC(=N)N)NC(=O)[C@H](C)NC(=O)[C@@H](NC(=O)[C@H](CCCNC(=N)N)NC(=O)[C@H](CCCNC(=N)N)NC(=O)[C@@H](NC(=O)[C@H](C)NC(=O)[C@H](CC(C)C)NC(=O)[C@@H](N)CCSC)C(C)C)[C@@H](C)O)C(=O)NCC(=O)O` [compound 2] (H-MLAVRRTARAIG-OH; N-terminus and C-terminus assumed), the “MTS cell viability, Percent of Control Activity” value with MDA-MB-231 cells came to 78%; in the data set with MCF-7 cells it was 39%. Besides, in the data set on 3T3-L1 adipocytes, the “Free fatty acid levels, Percent of Control Value (percent isoproterenol control)” value is on record as 76%. In addition, the “Caspase 3/7 activity, Percent of Control Activity” value in data set [1] turned out to be 71%.
Taken in the same sequence, the figures for `CC[C@H](C)[C@H](NC(=O)[C@H](C)NC(=O)[C@H](Cc1c[nH]c2ccccc12)NC(=O)[C@@H](N)CCSC)C(=O)N[C@@H](CC(=O)O)C(=O)N[C@@H](CCC(=O)O)C(=O)N[C@@H](CCCCN)C(=O)N[C@@H](C)C(=O)N[C@H](C(=O)N[C@@H](CCC(=O)O)C(=O)N[C@@H](C)C(=O)N[C@@H](CO)C(=O)NCC(=O)N[C@@H](CCC(=O)O)C(=O)O)C(C)C` [compound 30] (H-MWAIDEKAVEASGE-OH; N-terminus and C-terminus assumed) were 76%, 61%, 85% and 50%.

(Values after patent US20220324912A1, “THERAPEUTIC PEPTIDES” (COHBAR, INC., priority 2019, published 2022).)
